Measured values published in patent US20250345253A1 (priority 2024, published 2025).

Assay: In vitro whitening and cleaning of stained test samples

## O=c1nc([O-])n(Cl)c(=O)n1Cl.[Na+] [dichloroisocyanurate]
Compared with cleaning solutions of up to 25% hydrogen peroxide and hydrogen peroxide salts (sodium perborate)
  Whitening and cleaning performance versus hydrogen peroxide solutions and salts: outperformed both hydrogen peroxide cleaning solutions of up to 25% hydrogen peroxide and hydrogen peroxide salts (sodium perborate)
Compared with other cleaning formulations containing hydrogen peroxide
  Whitening and cleaning of stained test samples: whitened and cleaned stained test samples better than other cleaning formulations containing hydrogen peroxide
